Results as given in patent publication US20240010726A1, “LFA-1 SIGNALLING MEDIATOR FOR USE IN CANCER THERAPY” (Universität Basel, priority 2020, published 2024).

How the values were obtained:
MC38-OVA tumor cells = test: Murine MC38-OVA tumor model, in vivo CD8+ T cell depletion; details: OVA immunized mice; 3 mM MgCl2 vs NaCl i.t.; anti-CD8a Ab 10 mg kg^−1 i.p. weekly
Procedure: FIG. 1: Intratumoral magnesium administration improves adaptive anti-tumor immunity. (a) Schematic of experimental design. B1/6 mice, either immunized with OVA or left untreated, were inoculated subcutaneously with MC38-OVA tumor cells bilaterally on the flanks. From day 7, injection of 3 mM NaCl solution was applied in left flank tumor, whereas 3 mM MgCl2 solution was injected in contralateral tumor. This regimen was repeated every third day for a total of 8 cycles. (b) Tumor growth curves in non-immunized mice (n=20) (left panel), and immunized mice (n=19) (right panel). (c) Tumor growth curves in ±CD8 depleted mice (n=6-17). Results were pooled from 2 independent experiments, with n=6-12 mice each. (d) Absolute numbers of tumor-infiltrating CD8^+ T cells. (e) Number of tumor-infiltrating CD8^+ T cells positive for Ki67 (left panel), Granzyme B (middle panel) and CD25 (right panel). (f) Cell number of tumor-infiltrating CD8^+ T cells expressing PD-1 and Tim3. (g) Schematic of experimental design. B1/6 mice, immunized with OVA, were inoculated subcutaneously with MC38-OVA tumor cells unilaterally on the flank. From day 5, intratumoral injections of either 3 mM NaCl or 3 mM MgCl2 were initiated, and repeated every third day for 8 cycles. Mice were additionally injected with 200 μg i.p. of isotype control (IgG2a) or anti-PD-1 Ab on day 9, 12, and 15. […]

T2 target cells = assay type: cell-based, human
human EM CD8 T cells = test: Flow cytometry of surface activation markers on EM CD8 T cells; assay type: cell-based; details: 24 h plate-bound anti-CD3 and soluble anti-CD28 Ab; 0 mM vs 1.2 mM Mg^2+
Procedure: FIG. 2: Extracellular magnesium promotes memory-specific activation via LFA-1. Glycolytic switch of human EM CD8 T cells (a) and naïve CD8 T cells (b) subsets upon injection of anti-CD3 Ab only, or anti-CD3 and anti-CD28 Ab, was assessed by metabolic flux analysis in medium containing either 1.2 mM Mg^2+, 0 mM Mg^2+, or medium which was reconstituted from 0 mM to 1.2 mM Mg^2+ immediately prior to activation (0→1.2 mM Mg^2+). (a) Results for human effector memory (EM) and (b) for human naïve CD8 T cells. Glycolytic switch was quantified by subtracting […] measurements. (c) Flow cytometric analysis of surface activation markers on human EM CD8 T cells 24 hours after activation by plate-bound anti-CD3 Ab and soluble anti-CD28 Ab, in 1.2 mM and 0 mM Mg^2+ media, respectively. (d) Abundance of inflammatory cytokines in corresponding EM CD8 T cell culture supernatants, determined by CBA. (e) CD11a (LFA-1) surface expression on human naïve and EM CD8 T cells as well PHA T cell blasts. Flow cytometry-based assessment of total LFA-1 expression assessed by mAb TS2/4 (f), closed conformation of αL by mAb HI111 (g), extended conformation of LFA-1 by mAb Kim127 (h), open head-piece conformation of LFA-1 by mAb m24 (i), phosphorylation of focal adhesion kinase (FAK) […] as well TNF expression (k)±TCR-induced activation in different extracellular Mg^2+ concentrations. (l) Flow cytometry-based assessment of LFA-1 with open-head piece conformation on human EM and naïve CD8 T cells using the open head-piece reporter mAb m24. (m) Assessment of glycolytic switch of EM CD8 T cells. (n) Assessment of glycolytic switch of naïve CD8 T cells. […] Naïve CD8 T cells were activated with in house generated anti-CD3/anti-CD28 coated microbeads. Polybead microspheres ([…], Polyscience […]) were incubated with 1 μg anti-CD3 Ab and 10 μg anti-CD28 Ab. […] Primary human T cells were activated for 24 h and PHA-blasts for 4 h. For analysis of surface markers, T cells were harvested at indicated time points, washed once in cold PBS and, if required, stained with Fixable Viability Dyes for 15 min at 4° C. Surface markers were stained with appropriate antibodies for 20 min at 4° C.

## [Mg+2] [Mg^2+, Magnesium]
MC38-OVA tumor cells
  Tumor growth in ±CD8 depleted mice: exerted its effect via CD8^+ T cells
T2 target cells
  Cytotoxicity of REP T cells (caspase-3 activity in T2 target cells): significantly increased
Human EM CD8 T cells
  CD25 surface expression: failed to upregulate
  CD69 surface expression: failed to upregulate
  CD71 surface expression: failed to upregulate
  CD98 surface expression: failed to upregulate
  CD107a surface expression (degranulation): failed to upregulate
